In the data set the test system is motor coordination of rats (latency to fall off the rotarod). In kind it is in vivo, rat (Sprague-Dawley). Conditions: vs baseline, n = 6. Here is the method: Motor activity was assessed using a rotarod apparatus for rats (Coulbourn Instruments, Lehigh Valley, PA, USA). The rotarod might be set at any speed from 0 to 50 rpm. For motor coordination assessment, rats were trained for 2 days by walking them each day on an accelerating rotarod from 4 to 40 rpm for 10 min. […] Motor performance was considered as the latency to fall off the rotarod apparatus determined from the mean time in three trials for each rat at each time.

Each structure is given as a SMILES string. Read-outs that look alike come from different tables or passages of the source.

Consider `CC[C@H](C)[C@H](NC(=O)[C@H](CCC(=O)O)NC(=O)[C@H](Cc1ccc(O)cc1)NC(=O)[C@H](CCCCN)NC(=O)[C@@H]1CSSC[C@@H]2NC(=O)[C@H](CCC(N)=O)NC(=O)[C@H](CC(=O)O)NC(=O)[C@H](CC(N)=O)NC(=O)[C@H](CO)NC(=O)[C@@H]3CCCN3C(=O)[C@H](CC(N)=O)NC(=O)[C@@H]3CSSC[C@H](NC(=O)[C@H](C(C)C)NC(=O)[C@H](CC(C)C)NC(=O)[C@H](CC(N)=O)NC(=O)[C@H](CO)NC(=O)[C@H](CO)NC(=O)[C@H](CCCCN)NC(=O)[C@H](CSSC[C@H](NC(=O)[C@@H](N)CCC(=O)O)C(=O)N[C@@H](CC(C)C)C(=O)NCC(=O)N[C@@H](Cc4ccccc4)C(=O)NCC(=O)N[C@@H](CCCCN)C(=O)NCC(=O)N3)NC2=O)C(=O)N[C@@H](CO)C(=O)N[C@@H](CCCNC(=N)N)C(=O)N[C@@H](CCCCN)C(=O)N[C@@H](Cc2c[nH]cn2)C(=O)N[C@@H](CCCNC(=N)N)C(=O)N[C@@H](Cc2c[nH]c3ccccc23)C(=O)N1)C(N)=O` [μ-TRTX-Hhn1b], for which the “latency to fall off the rotarod” value is recorded as “no significant change in latencies to fall off the rotarod” (0.1 mg/kg, 30 min and 90 min after administration); “significantly (p < 0.05) reduced latencies” (0.2 mg/kg, 30 min after administration, p < 0.05); “not at 90 min” (0.2 mg/kg, 90 min after administration).
